Assay: Binding of P-EGFs to TiO2 plate, anti-EGF antibody chemiluminescence detection
Details: about 2.0 ng, 10 μl in TBS pH 7.5; washed 3 times with TBS-T; anti-human EGF antibody and HRP secondary
Experimental: Subsequently, in accordance with a scheme in the left in FIG. 4-2, various P-EGF solutions (about 2.0 ng, 10 μl in TBS, pH 7.5) were added on a TiO2 plate (a plate produced by vapor deposition of titanium on the surface of a glass plate with a diameter of 15 mm and a thickness of 0.6 mm (manufactured by Matsunami Glass Ind., Ltd.) (the vapor deposition step was requested to Osaka Vacuum Industrial Co., Ltd.) was used); and a washing operation (TBS-T buffer, pH 7.5) was repeated 3 times. And, after blocking with 0.1% BSA solution, an anti-human EGF antibody was added as a primary antibody. Furthermore, after the washing operation (TBS-T buffer, pH 7.5) was repeated 3 times, an anti-mouse IgG antibody HRP conjugate was added as a secondary antibody. At the end, using a luminescent phenomenon by a reaction between a chemiluminescence reagent and HRP as an index, the presence of protein immobilized on the TiO2 plate was detected. […]
First, in accordance with a scheme in the left in FIG. 7-1, various P-EGF solutions (about 2.0 ng, 10 μl in TBS, pH 7.5) were added on a TiO2 plate and a washing operation (TBS-T buffer, pH 7.5) was repeated 3 times. […] At the end, using a luminescent phenomenon by a reaction between a chemiluminescence reagent and HRP as an index, the presence of protein immobilized on the TiO2 plate was detected.

TiO2 plate binding (luminescent phenomenon of protein immobilized on the plate): did not exhibit TiO2 binding
Substance: EGF: EGF to which a peptide was not fused

Reference: patent US8697655B2, “Method of selecting polypeptide sequence, and metal oxide or silicon-containing compound binding peptide and use thereof” (Riken, priority 2010, dated 2014)
